The values that follow come from patent publication US20050107376A1, “Fungicidal mixtures based on prothioconazole” (priority 2002, published 2005).

Molecules are shown by their SMILES.

For experiment [1], the system named is Erysiphe [syn. Blumeria] graminis forma specialis. tritici. Kind of experiment: Activity against mildew of wheat (protective spray, wheat seedlings cultivar Kanzler). Format: in vivo. Conditions: 7 days, control 77% infestation. The protocol:
(§1) The active compounds, separately or together, were formulated as a 10% emulsion in a mixture of 63% by weight of cyclohexanone and 27% by weight of emulsifier, and diluted with water to the desired concentration.
(§2) Evaluation was carried out by determining the infected leaf areas in percent. These percentages were converted into efficacies. The efficacy (W) was calculated as follows using Abbot's formula: [formula] • α corresponds to the fungal infection of the treated plants in % and • β corresponds to the fungal infection of the untreated (control) plants in %
(§3) An efficacy of 0 means that the infection level of the treated plants corresponds to that of the untreated control plants; an efficacy of 100 means that the treated plants were not infected.
(§4) The expected efficacies of the mixtures of the active compounds were determined using Colby's formula [R. S. Colby, Weeds 15, 20-22 (1967)] and compared with the observed efficacies. Colby's formula: E x+y−x•y/100 • E expected efficacy, expressed in % of the untreated control, when using the mixture of the active compounds A and B at the concentrations a and b • x efficacy, expressed in % of the untreated control, when using active compound A at a concentration of a • y efficacy, expressed in % of the untreated control, when using active compound B at a concentration of b.
Leaves of wheat seedlings of the cultivar “Kanzler”, which had been grown in pots, were sprayed to runoff point with an aqueous suspension having the concentration of active compound stated below. The suspension or emulsion was prepared from a stock solution with 10% of active compound in a mixture comprising 85% of cyclohexanone and 5% of emulsifier. 24 hours after the spraycoating had dried on, the plants were dusted with spores of mildew of wheat (Erysiphe [syn. Blumeria] graminis forma specialis. tritici). The test plants were then placed in a greenhouse at 20-24° C. and 60-90% relative atmospheric humidity. After 7 days, the extent of the mildew development was determined visually in % infection of the total leaf area.
The visually determined values for the percentage of diseased leaf areas were converted into efficacies in % of the untreated control. An efficacy of 0 means the same disease level as in the untreated control, an efficacy of 100 means 0% disease. The expected efficacies for combinations of active compounds were determined using the abovementioned Colby formula and compared with the observed efficacies.

For experiment [2], the system named is Puccinia recondita. Kind of experiment: Curative activity against brown rust of wheat (wheat seedlings cultivar Kanzler). Conditions: 7 days, control 90% infestation. Format: in vivo. As to the method:
as §1, §2, §3, §4
Leaves of wheat seedlings of the cultivar “Kanzler”, which had been grown in pots, were dusted with spores of brown rust (Puccinia recondita). The pots were then placed in a chamber with high atmospheric humidity (90-95%), at 20-22° C. During this time, the spores germinated and the germinal tubes penetrated into the leaf tissue. The next day, the infected plants were sprayed to runoff point with an aqueous suspension having the concentration of active compound stated below. The suspension or emulsion was prepared from a stock solution with 10% of active compound in a mixture comprising 85% of cyclohexanone and 5% of emulsifier. After the spray coating had dried on, the test plants were cultivated in a greenhouse at 20-22° C. in 65-70% relative atmospheric humidity for 7 days. The extent of the rust fungus development on the leaves was then determined.
The visually determined values for the percentage of diseased leaf areas were converted into efficacies in % of the untreated control. An efficacy of 0 means the same disease level as in the untreated control, an efficacy of 100 means 0% disease. The expected efficacies for active compound combinations were determined using the abovementioned Colby formula and compared with the observed efficacies.

Take `OC(Cc1ccccc1Cl)(Cn1nc[nH]c1=S)C1(Cl)CC1` (stereo not drawn) [Compound I, 2-[2-(1-chlorocyclopropyl)-3-(2-chlorophenyl)-2-hydroxy-propyl]-2,4-dihydro-[1,2,4]-triazole-3-thione]: the “Efficacy in % of the untreated control” value in experiment [1] (0.25 ppm in the spray liquor) came to 0%; in experiment [1] (1 ppm in the spray liquor) it was 0%; in experiment [2] (0.25 ppm in the spray liquor) it was 22%; in experiment [2] (1 ppm in the spray liquor) it was 78%.

Regarding `CC(Cc1ccc(C(C)(C)C)cc1)CN1CCCCC1` (stereo not drawn) [Compound IV, fenpropidin], the “Efficacy in % of the untreated control” value is recorded as 0% in experiment [1] (0.15 ppm in the spray liquor); 61% in experiment [1] (0.6 ppm in the spray liquor); 0% in experiment [2] (0.15 ppm in the spray liquor); 0% in experiment [2] (0.6 ppm in the spray liquor); 44% in experiment [2] (2.5 ppm in the spray liquor).

Turning to `CC(Cc1ccc(C(C)(C)C)cc1)CN1C[C@@H](C)O[C@@H](C)C1` (stereo partly drawn) [Compound II, fenpropimorph], the “Efficacy in % of the untreated control” value in experiment [1] (0.15 ppm in the spray liquor) worked out at 0%; in experiment [1] (0.6 ppm in the spray liquor), 0%; in experiment [1] (2.5 ppm in the spray liquor), 74%; in experiment [2] (0.15 ppm in the spray liquor), 0%; in experiment [2] (0.6 ppm in the spray liquor) it was 0%; in experiment [2] (2.5 ppm in the spray liquor), 22%.

For `CCCCCCCCCCCCCN1CC(C)OC(C)C1` (stereo not drawn) [Compound III, tridemorph], the “Efficacy in % of the untreated control” value in experiment [1] (0.15 ppm in the spray liquor) turned out to be 0%; in experiment [1] (0.6 ppm in the spray liquor) it was 0%; in experiment [1] (2.5 ppm in the spray liquor) it was 48%; in experiment [2] (0.15 ppm in the spray liquor) it was 0%; in experiment [2] (0.6 ppm in the spray liquor), 0%; in experiment [2] (2.5 ppm in the spray liquor), 0%.
